Data from patent US20060069132A1, “Azolecarboxamide herbicides” (priority 2004, published 2006).

What was measured:
wild oat = assay: Test B postemergence herbicide test; format: in vivo, Avena fatua; details: postemergence, visual rating, scale 0 (no effect) to 100 (complete control)
Method in brief: (§1)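 Scale 0–100: zero equals no visible effect, 100 complete control, judged by eye relative to controls. Timing: 13 to 15 days in greenhouse post-treatment. Growth stage at spraying: two leaves (paddy) or one to four leaves, 2–18 cm (postemergence).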

blackgrass = assay: Test B postemergence herbicide test; format: in vivo, Alopecurus myosuroides; details: postemergence, visual rating, scale 0 (no effect) to 100 (complete control)
Method in brief: as §1

Surinam grass = assay: Test B pre-/postemergence herbicide test; format: in vivo, Urochloa decumbens; details: for Plant response rating, Surinam Grass: preemergence; for Surinam Grass plant response rating: postemergence, visual rating, scale 0 (no effect) to 100 (complete control)
Method in brief: (§2)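 Pre: seeds sown, then sprayed. Post: 1–4-leaf plants (2–18 cm) sprayed at the same time. Paddy: flooded, treated at 2-leaf stage. Formulation: non-phytotoxic solvent with surfactant. Greenhouse 13–15 days; visual 0–100 score relative to controls.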

velvetleaf = assay: Test B pre-/postemergence herbicide test; format: in vivo, Abutilon theophrasti; details: for Plant response rating, Velvetleaf: preemergence; for Velvetleaf plant response rating: postemergence, visual rating, scale 0 (no effect) to 100 (complete control)
Method in brief: as §2

rice = assay: Test B flooded paddy test; format: in vivo, Oryza sativa; details: 1000 g ai/ha, visual rating, scale 0 to 100 (0 no effect, 100 complete control), 13 to 15 days
Method in brief: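 Plants grow to 1- to 4-leaf stage (2–18 cm) for postemergence spraying, or to 2-leaf stage for the paddy test. Formulated compound is applied. Greenhouse holding lasts 13–15 days. Response is scored visually relative to controls, 0 no effect to 100 complete control; a dash means no result.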

pigweed = assay: Test B pre-/postemergence herbicide test; format: in vivo, Amaranthus retroflexus; details: for Plant response rating, Pigweed: preemergence; for Pigweed plant response rating: postemergence, visual rating, scale 0 (no effect) to 100 (complete control)
Method in brief: as §2

barnyardgrass [1] = assay: Test B flooded paddy test; format: in vivo, Echinochloa crus-galli; details: 1000 g ai/ha, visual rating, scale 0 to 100 (0 no effect, 100 complete control), 13 to 15 days
Method in brief: as §1

wheat = assay: Test B postemergence herbicide test; format: in vivo, Triticum aestivum; parameters: key to Wheat plant response rating: 0 = no effect, 100 = complete control; details: postemergence, visual rating, scale 0 (no effect) to 100 (complete control)
Method in brief: as §1

[2] = system: small flower umbrella sedge; assay: Test B flooded paddy test; format: in vivo, Cyperus difformis; details: 1000 g ai/ha, visual rating, scale 0 to 100 (0 no effect, 100 complete control), 13 to 15 days
Method in brief: as §1

morningglory = assay: Test B pre-/postemergence herbicide test; format: in vivo, Ipomoea coccinea; details: for Plant response rating, Morningglory: preemergence; for Morningglory plant response rating: postemergence, visual rating, scale 0 (no effect) to 100 (complete control)
Method in brief: (§3)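 Formulation: non-phytotoxic solvent mix with surfactant. Timing: preemergence on seed and postemergence on 2–18 cm plants, applied concurrently. Readout after 13–15 d greenhouse: visual 0–100 control rating against controls.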

cocklebur = assay: Test B pre-/postemergence herbicide test; format: in vivo, Xanthium strumarium; details: for Plant response rating, Cocklebur: preemergence; for Cocklebur plant response rating: postemergence, visual rating, scale 0 (no effect) to 100 (complete control)
Method in brief: as §3

large crabgrass = assay: Test B pre-/postemergence herbicide test; format: in vivo, Digitaria sanguinalis; details: for Plant response rating, Crabgrass, Large: preemergence; for Crabgrass, Large plant response rating: postemergence, visual rating, scale 0 (no effect) to 100 (complete control)
Method in brief: as §2

barnyardgrass [3] = assay: Test B pre-/postemergence herbicide test; format: in vivo, Echinochloa crus-galli; details: for Plant response rating, Barnyardgrass: preemergence; for Barnyardgrass plant response rating: postemergence, visual rating, scale 0 (no effect) to 100 (complete control)
Method in brief: as §3

giant foxtail = assay: Test B pre-/postemergence herbicide test; format: in vivo, Setaria faberi; details: for Plant response rating, Foxtail, Giant: preemergence; for Foxtail, Giant plant response rating: postemergence, visual rating, scale 0 (no effect) to 100 (complete control)
Method in brief: as §2

lambsquarters = assay: Test B pre-/postemergence herbicide test; format: in vivo, Chenopodium album; details: for Plant response rating, Lambsquarters: preemergence; for Lambsquarters plant response rating: postemergence, visual rating, scale 0 (no effect) to 100 (complete control)
Method in brief: as §2

[4] = 500 g ai/ha, visual rating 0-100, 0 no effect, 100 complete control
[5] = 125 g ai/ha, 0 to 100 scale, 0 is no effect, 100 is complete control

## CC(=O)c1cccc(NC(=O)c2cc(C(C)(C)C)nn2CCF)c1 [Compound 128]
Wild oat; 125 g ai/ha
  Oat, Wild plant response rating: 10
Wild oat; 500 g ai/ha
  Oat, Wild plant response rating: 10
blackgrass; 125 g ai/ha
  Blackgrass plant response rating: 10
blackgrass; 500 g ai/ha
  Blackgrass plant response rating: 10
Surinam grass; [4]
  Plant response rating, Surinam Grass: 60
Surinam grass; 125 g ai/ha
  Surinam Grass plant response rating: 10
Surinam grass; 500 g ai/ha
  Surinam Grass plant response rating: 20
Surinam grass; [5]
  Plant response rating, Surinam Grass: 40
velvetleaf; [4]
  Plant response rating, Velvetleaf: 80
velvetleaf; 125 g ai/ha
  Velvetleaf plant response rating: 50
velvetleaf; 500 g ai/ha
  Velvetleaf plant response rating: 60
velvetleaf; [5]
  Plant response rating, Velvetleaf: 70
rice
  Rice plant response rating: 60
pigweed; [4]
  Plant response rating, Pigweed: 80
pigweed; 125 g ai/ha
  Pigweed plant response rating: 20
pigweed; 500 g ai/ha
  Pigweed plant response rating: 60
pigweed; [5]
  Plant response rating, Pigweed: 50
Barnyardgrass [1]
  Barnyardgrass plant response rating: 70
wheat; 125 g ai/ha
  Wheat plant response rating: 0
wheat; 500 g ai/ha
  Wheat plant response rating: 20
[2]
  Sedge, Umbrella plant response rating: 90
morningglory; [4]
  Plant response rating, Morningglory: 30
morningglory; [5]
  Plant response rating, Morningglory: 20
cocklebur; [4]
  Plant response rating, Cocklebur: 20
cocklebur; 125 g ai/ha
  Cocklebur plant response rating: 90
cocklebur; 500 g ai/ha
  Cocklebur plant response rating: 100
cocklebur; [5]
  Plant response rating, Cocklebur: 20
Large crabgrass; [4]
  Plant response rating, Crabgrass, Large: 100
Large crabgrass; 125 g ai/ha
  Crabgrass, Large plant response rating: 20
Large crabgrass; 500 g ai/ha
  Crabgrass, Large plant response rating: 20
Large crabgrass; [5]
  Plant response rating, Crabgrass, Large: 90
Barnyardgrass [3]; [4]
  Plant response rating, Barnyardgrass: 90
Barnyardgrass [3]; 125 g ai/ha
  Barnyardgrass plant response rating: 20
Barnyardgrass [3]; 500 g ai/ha
  Barnyardgrass plant response rating: 30
Barnyardgrass [3]; [5]
  Plant response rating, Barnyardgrass: 80
Giant foxtail; [4]
  Plant response rating, Foxtail, Giant: 60
Giant foxtail; 125 g ai/ha
  Foxtail, Giant plant response rating: 20
Giant foxtail; 500 g ai/ha
  Foxtail, Giant plant response rating: 20
Giant foxtail; [5]
  Plant response rating, Foxtail, Giant: 40
lambsquarters; [4]
  Plant response rating, Lambsquarters: 70
lambsquarters; 125 g ai/ha
  Lambsquarters plant response rating: 0
lambsquarters; 500 g ai/ha
  Lambsquarters plant response rating: 60
lambsquarters; [5]
  Plant response rating, Lambsquarters: 0

## CCOc1cccc(NC(=O)c2cc(C(C)(C)C)nn2CC)c1 [Compound 136]
Wild oat; 125 g ai/ha
  Oat, Wild plant response rating: 50
Wild oat; 500 g ai/ha
  Oat, Wild plant response rating: 60
blackgrass; 125 g ai/ha
  Blackgrass plant response rating: 30
blackgrass; 500 g ai/ha
  Blackgrass plant response rating: 60
Surinam grass; [4]
  Plant response rating, Surinam Grass: 90
Surinam grass; 125 g ai/ha
  Surinam Grass plant response rating: 20
Surinam grass; 500 g ai/ha
  Surinam Grass plant response rating: 70
Surinam grass; [5]
  Plant response rating, Surinam Grass: 40
velvetleaf; [4]
  Plant response rating, Velvetleaf: 100
velvetleaf; 125 g ai/ha
  Velvetleaf plant response rating: 60
velvetleaf; 500 g ai/ha
  Velvetleaf plant response rating: 70
velvetleaf; [5]
  Plant response rating, Velvetleaf: 50
rice
  Rice plant response rating: 30
pigweed; [4]
  Plant response rating, Pigweed: 100
pigweed; 125 g ai/ha
  Pigweed plant response rating: 60
pigweed; 500 g ai/ha
  Pigweed plant response rating: 90
pigweed; [5]
  Plant response rating, Pigweed: 100
Barnyardgrass [1]
  Barnyardgrass plant response rating: 60
wheat; 125 g ai/ha
  Wheat plant response rating: 20
wheat; 500 g ai/ha
  Wheat plant response rating: 40
[2]
  Sedge, Umbrella plant response rating: 90
morningglory; [4]
  Plant response rating, Morningglory: 70
morningglory; 125 g ai/ha
  Morningglory plant response rating: 20
morningglory; 500 g ai/ha
  Morningglory plant response rating: 100
morningglory; [5]
  Plant response rating, Morningglory: 50
cocklebur; [4]
  Plant response rating, Cocklebur: 10
cocklebur; 125 g ai/ha
  Cocklebur plant response rating: 100
cocklebur; 500 g ai/ha
  Cocklebur plant response rating: 100
cocklebur; [5]
  Plant response rating, Cocklebur: 0
Large crabgrass; [4]
  Plant response rating, Crabgrass, Large: 100
Large crabgrass; 125 g ai/ha
  Crabgrass, Large plant response rating: 10
Large crabgrass; 500 g ai/ha
  Crabgrass, Large plant response rating: 70
Large crabgrass; [5]
  Plant response rating, Crabgrass, Large: 100
Barnyardgrass [3]; [4]
  Plant response rating, Barnyardgrass: 100
Barnyardgrass [3]; 125 g ai/ha
  Barnyardgrass plant response rating: 50
Barnyardgrass [3]; 500 g ai/ha
  Barnyardgrass plant response rating: 90
Barnyardgrass [3]; [5]
  Plant response rating, Barnyardgrass: 90
Giant foxtail; [4]
  Plant response rating, Foxtail, Giant: 100
Giant foxtail; 125 g ai/ha
  Foxtail, Giant plant response rating: 10
Giant foxtail; 500 g ai/ha
  Foxtail, Giant plant response rating: 10
Giant foxtail; [5]
  Plant response rating, Foxtail, Giant: 80
lambsquarters; [4]
  Plant response rating, Lambsquarters: 100
lambsquarters; 125 g ai/ha
  Lambsquarters plant response rating: 100
lambsquarters; 500 g ai/ha
  Lambsquarters plant response rating: 100
lambsquarters; [5]
  Plant response rating, Lambsquarters: 100
